Holding throughout (format): functional
The subject of test [1] is Staphylococcus aureus. Briefly: Antibacterial activity against methicilin-resistant Staphylococcus aureus N315 assessed as inhibition of bacterial growth incubated for 18 hrs by two fold broth microdilution assay. (In broth dilution the organism is exposed to a series of concentrations in liquid medium.)
The subject of test [2] is Enterococcus faecalis. In words: Antibacterial activity against Enterococcus faecalis assessed as inhibition of bacterial growth incubated for 18 hrs by two fold broth microdilution assay.
The subject of test [3] is Staphylococcus aureus. In words: Antibacterial activity against Staphylococcus aureus assessed as inhibition of bacterial growth incubated for 18 hrs by two fold broth microdilution assay.
For test [4], the system named is Staphylococcus aureus. In words: Antibacterial activity against Staphylococcus aureus ATCC 25923 assessed as inhibition of bacterial growth incubated for 18 hrs by two fold broth microdilution assay.
In test [5] the test system is Staphylococcus aureus. Briefly: Antibacterial activity against Staphylococcus aureus ATCC 29213 assessed as inhibition of bacterial growth incubated for 18 hrs by two fold broth microdilution assay.
The test system of test [6] is Klebsiella pneumoniae. Briefly: Antibacterial activity against Klebsiella pneumoniae assessed as inhibition of bacterial growth incubated for 18 hrs by two fold broth microdilution assay.
The subject of test [7] is Escherichia coli. Briefly: Antibacterial activity against Escherichia coli assessed as inhibition of bacterial growth incubated for 18 hrs by two fold broth microdilution assay.
Test [8] has as its system Pseudomonas aeruginosa. Briefly: Antibacterial activity against Pseudomonas aeruginosa assessed as inhibition of bacterial growth incubated for 18 hrs by two fold broth microdilution assay.
The subject of test [9] is Acinetobacter baumannii. Briefly: Antibacterial activity against Acinetobacter baumannii assessed as inhibition of bacterial growth incubated for 18 hrs by two fold broth microdilution assay.
Test [10] relates to Pseudomonas aeruginosa. In words: Antibacterial activity against Pseudomonas aeruginosa ATCC 27853 assessed as inhibition of bacterial growth incubated for 18 hrs by two fold broth microdilution assay.
Test [11] relates to Escherichia coli. In words: Antibacterial activity against Escherichia coli ATCC 25922 assessed as inhibition of bacterial growth incubated for 18 hrs by two fold broth microdilution assay.

The source of these data is ChEMBL document CHEMBL5625248, “Identification of unique indolylcyanoethylenyl sulfonylanilines as novel structural scaffolds of potential antibacterial agents” (Eur J Med Chem, 2023).

In brackets after ≈: the same amount, converted by molar mass.

A word on the MIC: it is the lowest concentration found to suppress growth. As for `N#C/C(=C\c1cn(Cc2ccc([N+](=O)[O-])cc2)c2ccccc12)S(=O)(=O)c1ccc(N)cc1`, the MIC in [1] came out at 128 µg/mL (≈ 279 µM); in [2], 128 µg/mL (≈ 279 µM); in test [3], 256 µg/mL (≈ 558 µM); in test [4], 256 µg/mL (≈ 558 µM); in test [5], 128 µg/mL (≈ 279 µM); in test [6], 64 µg/mL (≈ 140 µM). For the same compound, the MIC came to 128 µg/mL (≈ 279 µM) in test [7]; 64 µg/mL (≈ 140 µM) in test [8]; 64 µg/mL (≈ 140 µM) in test [9]; 128 µg/mL (≈ 279 µM) in test [10]; 128 µg/mL (≈ 279 µM) in [11].
Turning to `CC(=O)Nc1ccc(S(=O)(=O)/C(C#N)=C/c2cn(CC3CCCC3)c3ccccc23)cc1`, the MIC in test [1] was 128 µg/mL (≈ 286 µM); in test [2], 32 µg/mL (≈ 71.5 µM); in [3], 8 µg/mL (≈ 17.9 µM); in [4], 128 µg/mL (≈ 286 µM); in test [5], 16 µg/mL (≈ 35.7 µM); in test [6], 4 µg/mL (≈ 8.94 µM). For the same compound, the MIC in test [7] came to 256 µg/mL (≈ 572 µM); in test [8], 64 µg/mL (≈ 143 µM); in test [9] it was 32 µg/mL (≈ 71.5 µM); in test [10], 16 µg/mL (≈ 35.7 µM); in test [11], 64 µg/mL (≈ 143 µM).
With `N#C/C(=C\c1cn(Cc2cccc(F)c2)c2ccccc12)S(=O)(=O)c1ccc(N)cc1`, the MIC turned out to be 256 µg/mL (≈ 593 µM) in test [1]; 128 µg/mL (≈ 297 µM) in [2]; 128 µg/mL (≈ 297 µM) in test [3]; 64 µg/mL (≈ 148 µM) in test [4]; 64 µg/mL (≈ 148 µM) in [5]; 4 µg/mL (≈ 9.27 µM) in [6]. Further, the MIC in test [7] worked out at 256 µg/mL (≈ 593 µM); in test [8], 64 µg/mL (≈ 148 µM); in test [9] it was 8 µg/mL (≈ 18.5 µM); in test [10], 64 µg/mL (≈ 148 µM); in [11] it was 64 µg/mL (≈ 148 µM).
Take `N#C/C(=C\c1cn(CC2CCCC2)c2ccccc12)S(=O)(=O)c1ccc(N)cc1`: the MIC in test [1] worked out at 256 µg/mL (≈ 631 µM); in [2], 32 µg/mL (≈ 78.9 µM); in [3], 256 µg/mL (≈ 631 µM); in test [4] it was 256 µg/mL (≈ 631 µM); in [5], 16 µg/mL (≈ 39.5 µM); in test [6], 4 µg/mL (≈ 9.86 µM). Further, the MIC in test [7] was 256 µg/mL (≈ 631 µM); in test [8] it was 64 µg/mL (≈ 158 µM); in test [9] it was 32 µg/mL (≈ 78.9 µM); in [10] it was 64 µg/mL (≈ 158 µM); in test [11] it was 8 µg/mL (≈ 19.7 µM).
`CCCCCn1cc(/C=C(\C#N)S(=O)(=O)c2ccc(N)cc2)c2ccccc21`: the MIC in test [1] stood at 256 µg/mL (≈ 651 µM); in test [2] it was 128 µg/mL (≈ 325 µM); in [3], 256 µg/mL (≈ 651 µM); in test [4], 128 µg/mL (≈ 325 µM); in test [5], 16 µg/mL (≈ 40.7 µM); in [6], 8 µg/mL (≈ 20.3 µM). Also, the MIC in test [7] stood at 8 µg/mL (≈ 20.3 µM); in test [8], 64 µg/mL (≈ 163 µM); in test [9] it was 32 µg/mL (≈ 81.3 µM); in [10] it was 64 µg/mL (≈ 163 µM); in [11], 16 µg/mL (≈ 40.7 µM).
On to `CCCCCCCCn1cc(/C=C(\C#N)S(=O)(=O)c2ccc(N)cc2)c2ccccc21`, for which the MIC was found to be 256 µg/mL (≈ 588 µM) in test [1]; 32 µg/mL (≈ 73.5 µM) in test [2]; 128 µg/mL (≈ 294 µM) in test [3]; 32 µg/mL (≈ 73.5 µM) in test [4]; 16 µg/mL (≈ 36.7 µM) in [5]; 4 µg/mL (≈ 9.18 µM) in test [6]. Further, the MIC in [7] was 128 µg/mL (≈ 294 µM); in test [8], 64 µg/mL (≈ 147 µM); in test [9], 32 µg/mL (≈ 73.5 µM); in test [10] it was 32 µg/mL (≈ 73.5 µM); in test [11] it was 64 µg/mL (≈ 147 µM).
In the case of `CC(=O)Nc1ccc(S(=O)(=O)/C(C#N)=C/c2c[nH]c3cc(Br)ccc23)cc1`, the MIC was 64 µg/mL (≈ 144 µM) in test [1]; 32 µg/mL (≈ 72 µM) in test [2]; 32 µg/mL (≈ 72 µM) in test [3]; 128 µg/mL (≈ 288 µM) in test [4]; 32 µg/mL (≈ 72 µM) in test [5]; 4 µg/mL (≈ 9 µM) in test [6]. Moreover, the MIC in test [7] stood at 128 µg/mL (≈ 288 µM); in [8], 64 µg/mL (≈ 144 µM); in test [9], 16 µg/mL (≈ 36 µM); in test [10], 16 µg/mL (≈ 36 µM); in [11], 64 µg/mL (≈ 144 µM).
Regarding `CC(=O)Nc1ccc(S(=O)(=O)/C(C#N)=C/c2cn(C)c3ccccc23)cc1`, the MIC in [1] amounted to 16 µg/mL (≈ 42.2 µM); in [2], 128 µg/mL (≈ 337 µM); in [3] it was 128 µg/mL (≈ 337 µM); in [4] it was 8 µg/mL (≈ 21.1 µM); in test [5] it was 128 µg/mL (≈ 337 µM); in [6], 128 µg/mL (≈ 337 µM). In addition, the MIC in test [7] turned out to be 16 µg/mL (≈ 42.2 µM); in test [8] it was 32 µg/mL (≈ 84.3 µM); in [9] it was 0.5 µg/mL (≈ 1.32 µM); in [10], 64 µg/mL (≈ 169 µM); in [11], 0.5 µg/mL (≈ 1.32 µM).
In the case of `N#C/C(=C\c1cn(Cc2ccc(Cl)cc2Cl)c2ccccc12)S(=O)(=O)c1ccc(N)cc1`, the MIC in [1] turned out to be 256 µg/mL (≈ 531 µM); in [2] it was 128 µg/mL (≈ 265 µM); in [3], 256 µg/mL (≈ 531 µM); in test [4], 32 µg/mL (≈ 66.3 µM); in test [5] it was 64 µg/mL (≈ 133 µM); in test [6], 4 µg/mL (≈ 8.29 µM). Also, the MIC was 256 µg/mL (≈ 531 µM) in test [7]; 64 µg/mL (≈ 133 µM) in test [8]; 16 µg/mL (≈ 33.2 µM) in [9]; 32 µg/mL (≈ 66.3 µM) in test [10]; 64 µg/mL (≈ 133 µM) in test [11].
